# Assay results taken from patent US6958215B1, “Methods and compositions for inhibition of RNA splicing” (priority 1999, dated 2005).
# [np] = N3'→P5' phosphoramidate internucleoside linkage; d = 2'-deoxy (DNA); r = 2'-OH (RNA)
# Legend:
# [1] = tested on: P. carinii rRNA precursor (P-h) containing a Group I intron; test: Inhibition of self-splicing, internally radiolabeled P-h precursor, gel assay; format: biochemical, Pneumocystis carinii; details: 2 mM Mg2+, up to 30 μM oligonucleotide, 1 mM pG
# [2] = tested on: P. carinii rRNA precursor (P-h) containing a Group I intron; test: Fate of 5′ end radiolabeled hexamer with unlabeled P-h precursor (trans-splicing); format: biochemical, Pneumocystis carinii; details: 0, 2, 3, or 15 mM Mg2+
# Experimental: The fate of the hexamers, (dA)n(dT)n(dG)n(dA)n(dC)n(rU) [Seq. ID No:1] and (dC)n(dA)n(dG)n(dT)n(dA)n(rU) [Seq. ID No:5], was also analyzed using radiolabeled hexamer and unlabeled precursor in the presence and absence of pG colactor. Approximately 300 nM unlabeled P-h precursor was reannealed at 55° C. in 3 μL of the appropriate buffer for 5 min and slow cooled to 37° C. A 3 μL solution of […] 5′ end radiolabeled hexamer in the same buffer at 37° C. was added and the reaction was allowed to proceed for 1 h. The reaction was quenched by the addition of 6 μL of 2× stop buffer and the reactants and products were separated on a 10% polyacrylamide, 8 M urea gel. The gel was dried under vacuum and the bands quantified with a Molecular Dynamics phosphorimager.
# [3] = tested on: P. carinii rRNA precursor (P-h) containing a Group I intron; test: Oligonucleotide concentration dependence of cis- and trans-splicing, 3′ end radiolabeled P-h precursor; format: biochemical, Pneumocystis carinii; details: up to 30 μM oligonucleotide, 4 mM Mg2+
# [4] = tested on: C-10/1x ribozyme; test: Binding to C-10/1x ribozyme, competitive band-shift native electrophoresis; parameters: species or system Candida albicans; details: H15Mg buffer; for Binding to C-10/1x ΔG*37,C-10/1x: calculated from Kd, T = 310 K; for Tertiary Stability BETI (binding enhanced by tertiary interactions): calculated using Kd values; for Tertiary Stability ααG°37,BETI: difference in ΔG°37 for binding to C-10/1x and r(GGAGGC)
# Experimental: C-10/1x is a Candida albicans rRNA Group I ribozyme. Dissociation constants for 5′ exon oligonucleotide mimics which bind to the C-10/1x ribozyme were measured by competitive band-shift native electrophoresis using methods described in Testa et al., Biochemistry 37:9379-9385 (1998). The results for a variety of oligonucleotides complementary or containing a one base mismatch to the C-10/1x 5′ exon guide sequence are shown in Table 2.
# [5] = tested on: r(GGAGGC); test: Base-pairing to r(GGAGGC), thermodynamic melts; format: binding; details: H15Mg buffer; for Kd: calculated from ΔG°37, read-out: Binding to r(GGAGGC) Kd,B.P.
Substance,increase in the 5′ exon-intron product [1],reactivity of 5′ radiolabeled hexamer with unlabeled precursor [2],formation of trans-spliced product [3],Kd [4],"Binding to C-10/1x ΔG*37,C-10/1x [4]",Tertiary Stability BETI (binding enhanced by tertiary interactions) [4],"Tertiary Stability ααG°37,BETI [4]","Binding to r(GGAGGC) ΔG°37,B.P. [5]",Kd [5]
"(dC)n(dA)n(dG)n(dT)n(dA)n(rU) (CAGTAU; sugars from the 5' end d5 r1, all [np], methylation of C not given here) [reference compound]",does not occur,not reactive,not formed,,,,,,
r(GACUCU) [reference compound],,,,6.9 nM,-11.6 kcal/mol,4800000,-9.5 kcal/mol,-2.1 kcal/mol,600 µM
r(GCCUCU) [reference compound],,,,0.7 nM,-13.0 kcal/mol,1500,-4.5 kcal/mol,-8.5 kcal/mol,100 µM
